Reference: article PMC5785446 (Alcoholism, clinical and experimental research, 2018)

Tests used:
human MOP receptor = human MOP receptor (Homo sapiens, UniProt P35372); format: biochemical
C57BL/6J mice = conditions: mouse, in vivo
wild-type mice = conditions: mouse, in vivo

human MOP receptor, sequence (P35372 whole entry): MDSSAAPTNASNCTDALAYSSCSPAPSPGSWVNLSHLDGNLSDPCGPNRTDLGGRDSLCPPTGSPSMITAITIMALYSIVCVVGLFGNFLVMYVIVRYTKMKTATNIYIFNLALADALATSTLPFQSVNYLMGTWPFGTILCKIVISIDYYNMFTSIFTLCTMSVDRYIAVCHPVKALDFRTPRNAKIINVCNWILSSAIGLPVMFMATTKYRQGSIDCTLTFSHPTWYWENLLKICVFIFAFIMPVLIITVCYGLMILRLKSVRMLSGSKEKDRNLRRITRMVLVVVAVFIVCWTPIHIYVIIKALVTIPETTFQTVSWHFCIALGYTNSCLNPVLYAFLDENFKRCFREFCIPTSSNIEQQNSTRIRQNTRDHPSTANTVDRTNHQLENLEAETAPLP

Structure (SMILES)	[35S]GTPγS MOP % Stim (human MOP receptor) [%]	effect on ethanol-induced CPP (C57BL/6J mice)	motor sedative effect on conditioning days (wild-type mice)
C[C@@H](NC(=O)[C@@H](N)Cc1ccc(O)cc1)C(=O)NCC(=O)N(C)[C@@H](Cc1ccccc1)C(=O)NCCO [DAMGO]	100		
CCCC(C)C1(CC)C(=O)NC(=O)NC1=O (stereo not drawn) [pentobarbital]		did not alter the rewarding action of ethanol	robust motor sedative effect
